According to PMC10673995, “Discovery of a novel cardiac-specific myosin modulator using artificial intelligence-based virtual screening” (Nature Communications, 2023):
Values joined by “and” are separate entries in the source; they are usually repeats but may differ in a detail not shown here. Identical values can stand only once.

Test system: isolated Langendorff-perfused rat hearts
Experiment: Langendorff-perfused rat hearts, haemodynamic parameters
Design: key to LVSP, individual hearts / LVEDP, individual hearts: pressure in mmHg; Max (Figure 5c): unit not given here
Settings: for Max (Figure 5c): one column per heart; for LVSP representative trace, ON: during perfusion with compound
Method: Next, we tested for the functional effects of F10 in isolated Langendorff-perfused rat hearts. Hearts were initially stabilized in modified Krebs-Henseleit (KH) solution for about 25–30 min and subsequently perfused with KH solution containing 20 μmol L^−1 F10 for 5 mins to reach a new steady state.
Rat hearts were Langendorff-perfused as described previously. Briefly, Wistar rats (Rattus norvegicus, male, 200–250 g, 7 weeks old) were anesthetized by injection of 0.9 mL sodium pentobarbitone 20% (w/v). […] The aorta was cannulated and secured with sutures (Mersilk 3‐0; Ethicon, Somerville, NJ, USA). Hearts were perfused at a constant perfusion pressure of 70 ± 2 mmHg using a peristaltic pump (Gilson Minipuls 4, Middleton, WI, USA) and a feedback control system (STH Pump Controller; AD Instruments, Oxford, UK). […] A fluid‐filled balloon, attached to a pressure transducer, was inserted into the left ventricle and inflated to give an end‐diastolic pressure between 3 and 8 mmHg. Left ventricular pressure (LVP), perfusion pressure, coronary flow and arterial and venous oxygen tensions were recorded using a PowerLab recorder and LabChart 8.0 software (ADInstruments). Functional parameters were averaged for ∼80 cardiac cycles at 5 min intervals.

[1] = 20 μmol L^−1 F10 or 1 μmol L^−1 Mavacamten
[2] = Time 11 min, during perfusion with 20 μmol L^−1 F10 or 1 μmol L^-1 Mavacamten
[3] = Time 12 min, during perfusion with 20 μmol L^−1 F10 or 1 μmol L^-1 Mavacamten
[4] = Time 13 min, during perfusion with 20 μmol L^−1 F10 or 1 μmol L^-1 Mavacamten
[5] = Time 14 min, during perfusion with 20 μmol L^−1 F10 or 1 μmol L^-1 Mavacamten
[6] = Time 15 min, during perfusion with 20 μmol L^−1 F10 or 1 μmol L^-1 Mavacamten

Compound: CCc1cc2c(=O)n(NC(=S)NC(C)C)cnc2s1 [F10]
- decrease of LVSP (20 μmol L^−1 F10): about 65%
- time to LVSP decrease (20 μmol L^−1 F10): 2 to 3 min
- LVEDP (20 μmol L^−1 F10, baseline 1.9 ± 0.2): 22.0 ± 1.1 mmHg
- Coronary flow (20 μmol L^−1 F10, baseline 15.6 ± 1.7): 16.7 ± 2.3 mL/min
- LVSP (left ventricular systolic pressure) (20 μmol L^−1 F10, baseline 168.0 ± 8.5): 58.3 ± 2.2 mmHg and ~60 mmHg
- Heart rate (20 μmol L^−1 F10, baseline 303 ± 8): 300 ± 4 bpm
- dP dt-1max (20 μmol L^−1 F10, baseline 3978.8 ± 108.0): 1329.0 ± 153.8 mmHg s-1
- dP dt-1min (20 μmol L^−1 F10, baseline -3352.4 ± 134.4): -1300.0 ± 104.2 mmHg s-1
- effect on coronary perfusion / coronary flow [1]: without, however, affecting
- effect on heart rate [1]: without, however, affecting
- effect on left ventricular end-diastolic pressure (LVEDP) [1]: slightly increased
- Max (Figure 5c) (Time 0 min): 4538.86 and 3737.57 and 4104.74 and 3514.73
- Max (Figure 5c) (Time 1 min): 4533.2 and 3831.26 and 4064.23 and 3491.94
- Max (Figure 5c) (Time 2 min): 4496.16 and 3879.38 and 4046.5 and 3811.01
- Max (Figure 5c) (Time 3 min): 4752.62 and 3481.82 and 4079.42 and 3811
- Max (Figure 5c) (Time 4 min): 4748.26 and 3745.17 and 3942.68 and 3866.71
- Max (Figure 5c) (Time 5 min): 4784.79 and 3724.91 and 3914.83 and 3735.04
- Max (Figure 5c) (Time 6 min): 4906.21 and 3922.42 and 4049.03 and 3689.46
- Max (Figure 5c) (Time 7 min): 4229.13 and 4155.39 and 4130.07 and 3504.61
- Max (Figure 5c) (Time 8 min): 3838.64 and 3904.7 and 4175.65 and 3570.44
- Max (Figure 5c) (Time 9 min): 4069.64 and 3864.18 and 4233.89 and 3747.7
- Max (Figure 5c) (Time 10 min): 4016.14 and 3757.83 and 4254.14 and 3608.43
- LVEDP, individual hearts [2]: 15.6 and 9.2 (2×) and 12.7
- LVSP, individual hearts [2]: 111 and 115 and 127 and 112
- Max (Figure 5c) (Time 11 min): 2272.52 and 2689.23 and 2643.65 and 2375.23
- LVEDP, individual hearts [3]: 29.6 and 15 and 19.6 and 15.9
- LVSP, individual hearts [3]: 61 and 72 and 67 and 69
- Max (Figure 5c) (Time 12 min): 1178.7 and 1696.59 and 1306.63 and 1372.47
- LVEDP, individual hearts [4]: 33.1 and 16.4 and 22.8 and 17.5
- LVSP, individual hearts [4]: 53 and 61 and 54 and 64
- Max (Figure 5c) (Time 13 min): 944.61 and 1258.52 and 1063.54 and 1212.94
- LVEDP, individual hearts [5]: 33.5 and 16.7 and 22.2 and 17.6
- LVSP, individual hearts [5]: 53 and 62 and 55 and 63
- LVEDP, individual hearts [6]: 24.3 and 20.65 and 23.5 and 19.6
- LVSP, individual hearts [6]: 54 and 60 and 59 and 62
- Max (Figure 5c) (Time 15 min): 1778.6 and 1228.13 and 1081.26
- LVEDP, individual hearts (Time 16 min, after washout): 10.1 and 9 and 13.9 and 11.2
- LVSP, individual hearts (Time 16 min, after washout): 56 and 118 and 105 and 99
- Max (Figure 5c) (Time 16 min): 3660.62 and 2787.98 and 2279.01 and 1886.51
- LVEDP, individual hearts (Time 17 min, after washout): 4.9 and 3.7 and 8.8 and 5.7
- LVSP, individual hearts (Time 17 min, after washout): 80 and 162 and 174 and 148
- Max (Figure 5c) (Time 17 min): 4729.41 and 3935.08 and 3990.79 and 3096.92
- LVEDP, individual hearts (Time 18 min, after washout): 3.9 and 2 and 7.3 (2×)
- LVSP, individual hearts (Time 18 min, after washout): 157 and 184 and 161 and 128
- Max (Figure 5c) (Time 18 min): 4833.67 and 4428.87 and 3509.67 and 2539.83
- LVEDP, individual hearts (Time 19 min, after washout): 4.5 and 0 and 5.9 and 6.4
- LVSP, individual hearts (Time 19 min, after washout): 189 and 183 and 170 and 127
- Max (Figure 5c) (Time 19 min): 4740.03 and 4469.38 and 3319.75 and 2476.52
- LVEDP, individual hearts (Time 20 min, after washout): 4.8 and 1.5 and 7.4 and 6.4
- LVSP, individual hearts (Time 20 min, after washout): 198 and 188 and 151 and 124
- Max (Figure 5c) (Time 20 min): 4601.11 and 4596 and 3177.95 and 2499.31
- LVEDP, individual hearts (Time 21 min, after washout): 3.4 and 1.5 and 7.5 and 6
- LVSP, individual hearts (Time 21 min, after washout): 199 and 191 and 151 and 124
- Max (Figure 5c) (Time 21 min): 4625.81 and 4497.24 and 3228.59 and 2473.99
- LVEDP, individual hearts (Time 22 min, after washout): 0.7 and 0.5 and 7.5 and 6.6
- LVSP, individual hearts (Time 22 min, after washout): 200 and 181 and 145 and 127
- Max (Figure 5c) (Time 22 min): 4517.25 and 4112.34 and 3099.45 and 2489.18
- LVEDP, individual hearts (Time 23 min, after washout): 3.5 and 0.4 and 5.8 and 6.4
- LVSP, individual hearts (Time 23 min, after washout): 202 and 174 and 144 and 129
- Max (Figure 5c) (Time 23 min): 4435.96 and 3988.26 and 3074.13 and 2524.63
- LVEDP, individual hearts (Time 24 min, after washout): 3.4 and 1.5 and 6.4 and 5.5
- LVSP, individual hearts (Time 24 min, after washout): 196 and 173 and 146 and 133
- Max (Figure 5c) (Time 24 min): 4141.16 and 3968 and 3132.37 and 2582.87
- LVEDP, individual hearts (Time 25 min, after washout): 2.4 and 0.2 and 5.3 and 4.7
- LVSP, individual hearts (Time 25 min, after washout): 195 and 173 and 151 and 139
- Max (Figure 5c) (Time 25 min): 4228.11 and 3945.21 and 3241.25 and 2668.97
- LVSP representative trace, OFF (after washout, t 0 s): 26.9301 mmHg
- LVSP representative trace, OFF (after washout, t 10 s): 27.9144 mmHg
- LVSP representative trace, OFF (after washout, t 20 s): 30.1929 mmHg
- LVSP representative trace, OFF (after washout, t 30 s): 33.9204 mmHg
- LVSP representative trace, OFF (after washout, t 40 s): 39.0616 mmHg
- LVSP representative trace, OFF (after washout, t 50 s): 45.8972 mmHg
- LVSP representative trace, OFF (after washout, t 60 s): 54.0831 mmHg
- LVSP representative trace, OFF (after washout, t 70 s): 63.6019 mmHg
- LVSP representative trace, OFF (after washout, t 80 s): 75.1964 mmHg
- LVSP representative trace, OFF (after washout, t 90 s): 88.9731 mmHg
- LVSP representative trace, OFF (after washout, t 100 s): 99.8102 mmHg
- LVSP representative trace, OFF (after washout, t 110 s): 110.826 mmHg
- LVSP representative trace, OFF (after washout, t 120 s): 122.733 mmHg
- LVSP representative trace, OFF (after washout, t 130 s): 132.379 mmHg
- LVSP representative trace, OFF (after washout, t 140 s): 138.465 mmHg
- LVSP representative trace, OFF (after washout, t 150 s): 148.942 mmHg
- LVSP representative trace, OFF (after washout, t 160 s): 154.992 mmHg
- LVSP representative trace, OFF (after washout, t 170 s): 158.488 mmHg
- LVSP representative trace, OFF (after washout, t 180 s): 163.133 mmHg
- LVSP representative trace, OFF (after washout, t 190 s): 167.458 mmHg
- LVSP representative trace, OFF (after washout, t 200 s): 171.598 mmHg
- LVSP representative trace, OFF (after washout, t 210 s): 175.866 mmHg
- LVSP representative trace, OFF (after washout, t 220 s): 181.264 mmHg
- LVSP representative trace, OFF (after washout, t 230 s): 184.759 mmHg
- LVSP representative trace, OFF (after washout, t 240 s): 185.799 mmHg
- LVSP representative trace, ON (t 0 s): 184.006 mmHg
- LVSP representative trace, ON (t 10 s): 181.455 mmHg
- LVSP representative trace, ON (t 20 s): 172.654 mmHg
- LVSP representative trace, ON (t 30 s): 155.565 mmHg
- LVSP representative trace, ON (t 40 s): 123.466 mmHg
- LVSP representative trace, ON (t 50 s): 94.0285 mmHg
- LVSP representative trace, ON (t 60 s): 73.0453 mmHg
- LVSP representative trace, ON (t 70 s): 48.8284 mmHg
- LVSP representative trace, ON (t 80 s): 40.271 mmHg
- LVSP representative trace, ON (t 90 s): 34.4969 mmHg
- LVSP representative trace, ON (t 100 s): 31.9133 mmHg
- LVSP representative trace, ON (t 110 s): 30.398 mmHg
- LVSP representative trace, ON (t 120 s): 28.7612 mmHg
- LVSP representative trace, ON (t 130 s): 28.2624 mmHg
- LVSP representative trace, ON (t 140 s): 27.1705 mmHg
- Coronary flow (individual hearts): 18.7 mL/min and 18.0 mL/min and 20.0 mL/min and 10.0 mL/min
- Heart rate (individual hearts): 295.0 bpm and 311.0 bpm and 292.0 bpm and 302.0 bpm
- LVEDP (individual hearts): 30.3 mmHg and 17.9 mmHg and 22.8 mmHg and 18.2 mmHg
- LVSP (individual hearts): 53.3 mmHg and 61.0 mmHg and 56.0 mmHg and 63.0 mmHg
- dP dt-1max (individual hearts): 1778.6 mmHg s-1 and 1228.1 mmHg s-1 (2×) and 1081.3 mmHg s-1
- dP dt-1min (individual hearts): -1606.8 mmHg s-1 and -1233.2 mmHg s-1 and -1142.0 mmHg s-1 and -1218.0 mmHg s-1
- reversibility of the effect on washout (perfusion with KH solution in the absence of F10): completely reversible
